Data: patent publication US20260209228A1 (Elanco Tiergesundheit AG, priority 2018, published 2026)

Key:
D. immitis microfilariae = assay: Dog heart worm microfilariae motility inhibition (Example A); assay type: cell-based; conditions: read-out: EC50 (motility inhibition)
[1] = tested on: H. contortus (H.c.) larvae; assay: Ruminant gastrointestinal H. contortus larvae motility inhibition (Example B); conditions: Haemonchus contortus, read-out: EC50 (motility inhibition)
Procedure: H.c. eggs isolated from lamb fecal matter are allowed to hatch overnight. Test compounds are diluted in DMSO and added to a 96-well plate containing appropriate media. H.c. larvae are added to each well and plates are incubated for the desired time(s). Motility is assessed using an LCD camera imaging system. Percent motility inhibition values are generated relative to the average of the DMSO-only wells.

L. sigmodontis = assay: L.s. model (Example E); conditions: mice infected s.c. with L. sigmodontis larvae; oral gavage, dose between 1×3 mg/kg and 5×32 mg/kg; necropsy 5 weeks after infection
Procedure: Mice, injected subcutaneously with infective L. sigmodontis larvae, were subsequently treated with the test article formulated in eg DMSO/PEG 2/1, by oral gavage at a dose in a range between 1×3 mg/kg up to 5×32 mg/kg (one dose per day for 5 consecutive days). At necropsy 5 weeks after infection, efficacy is calculated by counting developed larvae vs. untreated animals using Abbot's formula.

H. contortus = assay: Gastro intestinal nematodes jird model, H. contortus only (Example C); conditions: jirds; H. contortus from stomach; oral, Day 6 after infection, dose between 1×3 mg/kg and 1×32 mg/kg; necropsy three days after treatment
Procedure: Jirds (Meriones unguiculatus), are artificially infected by gavage with third instar larvae each of T. colubriformis and H. contortus. Then treated orally with the test compound formulated in eg DMSO/PEG 2/1, on Day 6 after infection at a dose in a range between 1×3 mg/kg up to 1×32 mg/kg. Three days after treatment, gerbils are euthanized and dissected to recover H. contortus from stomach and T. colubriformis from the small intestine. Efficacy is expressed as a % reduction in worm numbers in comparison with a placebo treated group, using the Abbot's formula.

| Structure (SMILES) | EC50 (D. immitis microfilariae) [µg/mL] | EC50 [1] [µg/mL] | efficacy (developed larvae vs. untreated animals, Abbot's formula) (L. sigmodontis) [%] | efficacy against He (% reduction in worm numbers vs placebo treated group, Abbot's formula) (H. contortus) [%] |
| --- | --- | --- | --- | --- |
| C[C@H]1COc2ccccc2[C@H]1NC(=O)c1cnc2c(-c3cc(Cl)cc(Cl)c3)nccc2c1N(C)C (racemic) [Example 1.39, 8-(3,5-dichlorophenyl)-4-(dimethylamino)-N-[rac-(3R,4S)-3-methylchroman-4-yl]-1,7-naphthyridine-3-carboxamide] | < 0.1 | < 1 | – | – |
| CN(C)c1c(C(=O)N[C@H]2CCOc3ccccc32)cnc2c(-c3cc(Cl)cc(Cl)c3)nccc12 [Example 1.1, N-[(4S)-chroman-4-yl]-8-(3,5-dichlorophenyl)-4-(dimethylamino)-1,7-naphthyridine-3-carboxamide] | < 0.1 | < 1 | – | – |
| CN(C)c1c(C(=O)N[C@H]2CCOc3ccccc32)cnc2c(N3CCc4cc(Cl)ccc43)nccc12 [Example 1.7, 8-(5-chloroindolin-1-yl)-N-[(4S)-chroman-4-yl]-4-(dimethylamino)-1,7-naphthyridine-3-carboxamide] | – | < 1 | – | – |
| CN(C)c1c(C(=O)N[C@H]2CCOc3ccccc32)cnc2c(-n3ccc4cc(Cl)ccc43)nccc12 [Example 1.8] | < 0.1 | < 1 | > 70 | – |
| O=C(N[C@H]1CCOc2ccccc21)c1cnc2c(-c3cc(Cl)cc(Cl)c3)nccc2c1N1CCOCC1 [Example 1.9, N-[(4S)-chroman-4-yl]-8-(3,5-dichlorophenyl)-4-morpholino-1,7-naphthyridine-3-carboxamide] | < 0.1 | < 1 | – | – |
| Nc1c(C(=O)N[C@H]2CCOc3ccccc32)cnc2c(-c3cc(Cl)cc(Cl)c3)nccc12 [Example 1.12, 4-amino-N-[(4S)-chroman-4-yl]-8-(3,5-dichlorophenyl)-1,7-naphthyridine-3-carboxamide] | < 0.1 | < 1 | – | – |
| CN(C)c1c(C(=O)N[C@H]2CCOc3cc(F)ccc32)cnc2c(-c3cc(Cl)cc(Cl)c3)nccc12 [Example 1.17, 8-(3,5-dichlorophenyl)-4-(dimethylamino)-N-[(4S)-7-fluorochroman-4-yl]-1,7-naphthyridine-3-carboxamide] | < 0.1 | < 1 | – | – |
| O=C(N[C@H]1CCOc2ccccc21)c1cnc2c(-c3cc(Cl)cc(Cl)c3)nccc2c1C1CC1 [Example 1.20, N-[(4S)-chroman-4-yl]-4-cyclopropyl-8-(3,5-dichlorophenyl)-1,7-naphthyridine-3-carboxamide] | < 0.1 | < 1 | – | – |
| CN(C)c1c(C(=O)N[C@H]2CCc3ccccc32)cnc2c(-c3cc(Cl)cc(Cl)c3)nccc12 [Example 1.21, 8-(3,5-dichlorophenyl)-4-(dimethylamino)-N-[(1S)-indan-1-yl]-1,7-naphthyridine-3-carboxamide] | < 0.1 | < 1 | – | – |
| COc1ccc(F)c(-c2nccc3c(N(C)C)c(C(=O)N[C@H]4CCOc5ccccc54)cnc23)c1F [Example 1.24, N-[(4S)-chroman-4-yl]-8-(2,6-difluoro-3-methoxyphenyl)-4-(dimethylamino)-1,7-naphthyridine-3-carboxamide] | < 0.1 | < 1 | – | – |
| O=C(N[C@H]1CCOc2ccccc21)c1cnc2c(-c3cc(Cl)cc(Cl)c3)nccc2c1Cl [Example 1.30, 4-chloro-N-[(4S)-chroman-4-yl]-8-(3,5-dichlorophenyl)-1,7-naphthyridine-3-carboxamide] | < 0.1 | – | – | – |
| CON(C)c1c(C(=O)N[C@H]2CCOc3ccccc32)cnc2c(-c3cc(Cl)cc(Cl)c3)nccc12 [Example 1.31, N-[(4S)-chroman-4-yl]-8-(3,5-dichlorophenyl)-4-[methoxy(methyl)amino]-1,7-naphthyridine-3-carboxamide] | < 0.1 | < 1 | – | – |
| CN(C)c1c(C(=O)N[C@H]2CCCc3ccccc32)cnc2c(-c3cc(Cl)cc(Cl)c3)nccc12 [Example 1.32, 8-(3,5-dichlorophenyl)-4-(dimethylamino)-N-[(1S)-tetralin-1-yl]-1,7-naphthyridine-3-carboxamide] | < 0.1 | < 1 | – | – |
| COc1c(C(=O)N[C@H]2CCOc3ccccc32)cnc2c(-c3cc(Cl)cc(Cl)c3)nccc12 [Example 1.33, N-[(4S)-chroman-4-yl]-8-(3,5-dichlorophenyl)-4-methoxy-1,7-naphthyridine-3-carboxamide] | < 0.1 | < 1 | – | – |
| O=C1CN(c2c(C(=O)N[C@H]3CCOc4ccccc43)cnc3c(-c4cc(Cl)cc(Cl)c4)nccc23)CN1 [Example 1.37, N-[(4S)-chroman-4-yl]-8-(3,5-dichlorophenyl)-4-(4-oxoimidazolidin-1-yl)-1,7-naphthyridine-3-carboxamide] | < 0.1 | < 1 | – | – |
| N#CCc1c(C(=O)N[C@H]2CCOc3ccccc32)cnc2c(-c3cc(Cl)cc(Cl)c3)nccc12 [Example 1.38, N-[(4S)-chroman-4-yl]-4-(cyanomethyl)-8-(3,5-dichlorophenyl)-1,7-naphthyridine-3-carboxamide] | < 0.1 | < 1 | – | – |

| Structure (SMILES) | EC50 (D. immitis microfilariae) [µg/mL] | EC50 [1] [µg/mL] | efficacy (developed larvae vs. untreated animals, Abbot's formula) (L. sigmodontis) [%] | efficacy against He (% reduction in worm numbers vs placebo treated group, Abbot's formula) (H. contortus) [%] |
| --- | --- | --- | --- | --- |
| CC(C)c1c(C(=O)N[C@H]2CCOc3ccccc32)cnc2c(-c3cc(Cl)cc(Cl)c3)nccc12 [Example 1.42, N-[(4S)-chroman-4-yl]-8-(3,5-dichlorophenyl)-4-isopropyl-1,7-naphthyridine-3-carboxamide] | < 0.1 | < 1 | – | – |
| Cc1ccc2c(c1)OCC[C@@H]2NC(=O)c1cnc2c(-c3cc(Cl)cc(Cl)c3)nccc2c1N(C)C [Example 1.45, 8-(3,5-dichlorophenyl)-4-(dimethylamino)-N-[(4S)-7-methylchroman-4-yl]-1,7-naphthyridine-3-carboxamide] | < 0.1 | < 1 | – | – |
| CN(C)c1c(C(=O)N[C@@H]2CCOc3ccsc32)cnc2c(-c3cc(Cl)cc(Cl)c3)nccc12 [Example 1.47, 8-(3,5-dichlorophenyl)-N-[(7R)-6,7-dihydro-5H-thieno[3,2-b]pyran-7-yl]-4-(dimethylamino)-1,7-naphthyridine-3-carboxamide] | < 0.1 | < 1 | – | – |
| CN(C)c1c(C(=O)N[C@H]2CCOc3ccccc32)cnc2c(-c3cc(F)cc(F)c3)nccc12 [Example 1.48, N-[(4S)-chroman-4-yl]-8-(3,5-difluorophenyl)-4-(dimethylamino)-1,7-naphthyridine-3-carboxamide] | < 0.1 | < 1 | – | – |
| CN(C)c1c(C(=O)N[C@H]2CCOc3ccccc32)cnc2c(-c3ccccc3F)nccc12 [Example 1.49, N-[(4S)-chroman-4-yl]-8-(2-fluorophenyl)-4-(dimethylamino)-1,7-naphthyridine-3-carboxamide] | < 0.1 | – | – | – |
| CN(C)c1c(C(=O)N[C@H]2CCOc3ccccc32)cnc2c(-c3cc(F)cc(F)c3F)nccc12 [Example 1.50, N-[(4S)-chroman-4-yl]-4-(dimethylamino)-8-(2,3,5-trifluorophenyl)-1,7-naphthyridine-3-carboxamide] | < 0.1 | < 1 | – | > 90 |
| CN(C)c1c(C(=O)N[C@H]2CCOc3ccccc32)cnc2c(-c3cc(F)c(F)c(F)c3)nccc12 [Example 1.51, N-[(4S)-chroman-4-yl]-4-(dimethylamino)-8-(3,4,5-trifluorophenyl)-1,7-naphthyridine-3-carboxamide] | < 0.1 | < 1 | – | – |
| CN(C)c1c(C(=O)N[C@H]2CCOc3ccccc32)cnc2c(-c3cc(C(F)(F)F)cc(C(F)(F)F)c3)nccc12 [Example 1.52, 8-[3,5-bis(trifluoromethyl)phenyl]-N-[(4S)-chroman-4-yl]-4-(dimethylamino)-1,7-naphthyridine-3-carboxamide] | < 0.1 | – | – | – |
| CN(C)c1c(C(=O)N[C@H]2CCOc3ccccc32)cnc2c(-c3ccc(Cl)cc3Cl)nccc12 [Example 1.54, N-[(4S)-chroman-4-yl]-8-(2,4-dichlorophenyl)-4-(dimethylamino)-1,7-naphthyridine-3-carboxamide] | < 0.1 | < 1 | – | – |
| CN(C)c1c(C(=O)N[C@H]2CCOc3ccccc32)cnc2c(-c3cccc(Cl)c3Cl)nccc12 [Example 1.55, N-[(4S)-chroman-4-yl]-8-(2,3-dichlorophenyl)-4-(dimethylamino)-1,7-naphthyridine-3-carboxamide] | < 0.1 | < 1 | – | – |
| CN(C)c1c(C(=O)N[C@H]2CCOc3ccccc32)ncc2c(-c3cc(Cl)cc(Cl)c3)cccc12 [Example 2.1, N-[(4S)-chroman-4-yl]-8-(3,5-dichlorophenyl)-4-(dimethylamino) isoquinoline-3-carboxamide] | < 0.1 | < 1 | – | – |
| CN(C)c1c(C(=O)N[C@H]2CCOc3ccccc32)ncc2c(-c3cc(Cl)cc(Cl)c3)nccc12 [Example 3.1, N-[(4S)-chroman-4-yl]-8-(3,5-dichlorophenyl)-4-(dimethylamino)-2,7-naphthyridine-3-carboxamide] | – | < 1 | – | – |
| CN(C)c1c(C(=O)N[C@H]2CCOc3ccccc32)ccc2c(-c3cc(Cl)cc(Cl)c3)nccc12 [Example 4.1, N-[(4S)-chroman-4-yl]-1-(3,5-dichlorophenyl)-5-(dimethylamino)isoquinoline-6-carboxamide] | < 0.1 | < 1 | – | – |
| CN(C)c1c(C(=O)N[C@H]2CCOc3ccccc32)ccc2c(-c3cc(Cl)cc(Cl)c3)cccc12 [Example 5.1] | < 0.1 | < 1 | – | – |
| CN(C)c1c(C(=O)N[C@H]2CCOc3ccccc32)ccc2c(-c3cc(Cl)cc(Cl)c3)ccnc12 [Example 6.1, N-[(4S)-Chroman-4-yl]-4-(3,5-dichlorophenyl)-8-(dimethylamino)quinoline-7-carboxamide] | < 0.1 | < 1 | – | – |
| CN(C)c1c(C(=O)N[C@H]2CCOc3ccccc32)ccc2c(-c3cc(Cl)cc(Cl)c3)cncc12 [Example 7.1, N-[(4S)-Chroman-4-yl]-4-(3,5-dichlorophenyl)-8-(dimethylamino)isoquinoline-7-carboxamide] | < 0.1 | < 1 | – | – |
